Data as given in patent publication US8802597B2, “Herbicidal pyrimidines” (E I du Pont de Nemours and Company, priority 2003, dated 2014).
Where two headings read alike, the source gives them in different places.

How the values were obtained:
Format in all cases: in vivo
[1] = tested on: barnyardgrass (Echinochloa crus-galli); experiment: Test B flooded paddy test; settings: Flood, scale 0 to 100
Summary of the method: (§1)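 Visual injury scoring (0 = no effect, 100 = complete control) versus controls made 13 to 15 days after treatment in the greenhouse. Test species were grown in flooded paddy to the 2-leaf stage: rice, barnyardgrass, umbrella sedge, duck salad.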

[2] = tested on: umbrella sedge (Cyperus difformis); experiment: Test B flooded paddy test; settings: Flood, scale 0 to 100
Summary of the method: as §1

[3] = tested on: rice (Oryza sativa); experiment: Test B flooded paddy test; settings: Flood, scale 0 to 100
Summary of the method: as §1

[4] = tested on: duck salad (Heteranthera limosa); experiment: Test B flooded paddy test; settings: Heteranthera limosa, Flood, scale 0 to 100, read-out: Plant response rating, Ducksalad
Summary of the method: as §1

[5] = tested on: wild oat (Avena fatua); experiment: Test B postemergence; settings: Avena fatua, post-emergence, scale 0 to 100 (0 no effect, 100 complete control), read-out: Oat, Wild plant response rating
Summary of the method: (§2)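 Test chemicals in a non-phytotoxic solvent mixture with surfactant were applied preemergence to planted seeds and postemergence to plants 2 to 18 cm tall (1- to 4-leaf stage). After 13 to 15 days in a greenhouse, injury was visually rated against untreated controls on a 0 to 100 scale.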

[6] = tested on: blackgrass (Alopecurus myosuroides); experiment: Test B postemergence; settings: Alopecurus myosuroides, post-emergence, scale 0 to 100 (0 no effect, 100 complete control), read-out: Blackgrass plant response rating
Summary of the method: as §2

[7] = tested on: velvetleaf (Abutilon theophrasti); experiment: Test B pre/postemergence; settings: Abutilon theophrasti; for pest or weed control at 62 g/ha: 62 g ai/ha; for pest or weed control at 125 g/ha: 125 g ai/ha
Summary of the method: as §2

[8] = tested on: morningglory (Ipomoea coccinea); experiment: Test B pre/postemergence; settings: Ipomoea; for pest or weed control at 62 g/ha: 62 g ai/ha; for pest or weed control at 125 g/ha: 125 g ai/ha
Summary of the method: as §2

[9] = tested on: giant foxtail (Setaria faberii); experiment: Test B pre/postemergence; settings: Setaria faberi; for pest or weed control at 125 g/ha: 125 g ai/ha; for pest or weed control at 62 g/ha: 62 g ai/ha
Summary of the method: as §2

[10] = tested on: Surinam grass (Brachiaria decumbens); experiment: Test B pre/postemergence; settings: Urochloa decumbens; for pest or weed control at 125 g/ha: 125 g ai/ha; for pest or weed control at 62 g/ha: 62 g ai/ha
Summary of the method: as §2

[11] = tested on: corn (Zea mays); experiment: Test B pre/postemergence; settings: Zea mays
Summary of the method: as §2

[12] = tested on: barnyardgrass (Echinochloa crus-galli); experiment: Test B pre/postemergence; settings: Echinochloa crus-galli, scale 0 to 100 (0 no effect, 100 complete control); for pest or weed control at 62 g/ha: 62 g ai/ha; for pest or weed control at 125 g/ha: 125 g ai/ha
Summary of the method: as §2

[13] = tested on: cocklebur (Xanthium strumarium); experiment: Test B pre/postemergence; settings: for pest or weed control at 125 g/ha: 125 g ai/ha
Summary of the method: as §2

[14] = tested on: pigweed (Amaranthus retroflexus); experiment: Test B pre/postemergence; settings: Amaranthus retroflexus; for pest or weed control at 62 g/ha: 62 g ai/ha; for pest or weed control at 125 g/ha: 125 g ai/ha
Summary of the method: as §2

[15] = tested on: lambsquarters (Chenopodium album); experiment: Test B pre/postemergence; settings: Chenopodium album; for pest or weed control at 62 g/ha: 62 g ai/ha; for pest or weed control at 125 g/ha: 125 g ai/ha
Summary of the method: as §2

[16] = tested on: wheat (Triticum aestivum); experiment: Test B pre/postemergence; settings: Triticum aestivum, scale 0 to 100 (0 no effect, 100 complete control); for plant injury at 62 g/ha: 62 g ai/ha; for plant injury at 125 g/ha: 125 g ai/ha
Summary of the method: as §2

[17] = tested on: crabgrass (Digitaria sanguinalis); experiment: Test B pre/postemergence; settings: Digitaria sanguinalis; for pest or weed control at 62 g/ha: 62 g ai/ha; for pest or weed control at 125 g/ha: 125 g ai/ha
Summary of the method: as §2

[18] = post-emergence, Postemergence, scale 0 to 100 (0 no effect, 100 complete control), read-out: Velvetleaf plant response rating
[19] = post-emergence, Postemergence, scale 0 to 100 (0 no effect, 100 complete control), read-out: Morningglory plant response rating
[20] = post-emergence, Postemergence, scale 0 to 100 (0 no effect, 100 complete control), read-out: Foxtail, Giant plant response rating
[21] = post-emergence, Postemergence, scale 0 to 100 (0 no effect, 100 complete control), read-out: Surinam Grass plant response rating
[22] = post-emergence, Postemergence, read-out: Barnyardgrass plant response rating
[23] = pre-emergence, Preemergence, read-out: Plant response rating, Barnyardgrass
[24] = post-emergence, Postemergence, scale 0 to 100 (0 no effect, 100 complete control), read-out: Pigweed plant response rating
[25] = post-emergence, Postemergence, scale 0 to 100 (0 no effect, 100 complete control), read-out: Lambsquarters plant response rating
[26] = post-emergence, Postemergence, read-out: Wheat plant response rating
[27] = pre-emergence, Preemergence, read-out: Plant response rating, Wheat
[28] = post-emergence, Postemergence, scale 0 to 100 (0 no effect, 100 complete control), read-out: Crabgrass plant response rating

Nc1nc(C2CC2)nc(C(=O)[O-])c1Cl.[Na+] [Compound 77, 6-amino-5-chloro-2-cyclopropyl-4-pyrimidinecarboxylic acid monosodium salt]
pest or weed control at 500 g/ha ([1]; Echinochloa crus-galli, 500 g ai/ha, read-out: Plant response rating, Barnyardgrass): 60% | Plant response rating, Barnyardgrass ([1]; 125 g ai/ha): 0 | Plant response rating, Sedge, Umbrella ([2]; 125 g ai/ha): 0 | Plant response rating, Sedge, Umbrella ([2]; 500 g ai/ha): 40 | Plant response rating, Rice ([3]; 125 g ai/ha): 0 | plant injury at 500 g/ha ([3]; Oryza sativa, 500 g ai/ha, read-out: Plant response rating, Rice): 50% | pest or weed control at 125 g/ha ([4]; 125 g ai/ha): 40% | pest or weed control at 500 g/ha ([4]; 500 g ai/ha): 80% | pest or weed control at 62 g/ha ([5]; 62 g ai/ha): 50% | pest or weed control at 125 g/ha ([5]; 125 g ai/ha): 60% | pest or weed control at 62 g/ha ([6]; 62 g ai/ha): 50% | pest or weed control at 125 g/ha ([6]; 125 g ai/ha): 60% | pest or weed control at 62 g/ha [7, 18]: 80% | pest or weed control at 125 g/ha [7, 18]: 90% | pest or weed control at 62 g/ha ([7]; pre-emergence, Preemergence, scale 0 to 100, 0 no effect, 100 complete control, read-out: Plant response rating, Velvetleaf): 80% | pest or weed control at 125 g/ha ([7]; pre-emergence, Preemergence, scale 0 to 100 (0 no effect, 100 complete control), read-out: Plant response rating, Velvetleaf): 100% | pest or weed control at 62 g/ha [8, 19]: 100% | pest or weed control at 125 g/ha [8, 19]: 100% | pest or weed control at 62 g/ha ([8]; pre-emergence, Preemergence, scale 0 to 100, 0 no effect, 100 complete control, read-out: Plant response rating, Morningglory): 100% | pest or weed control at 125 g/ha ([8]; pre-emergence, Preemergence, scale 0 to 100 (0 no effect, 100 complete control), read-out: Plant response rating, Morningglory): 100% | pest or weed control at 125 g/ha [9, 20]: 80% | pest or weed control at 62 g/ha [9, 20]: 70% | pest or weed control at 125 g/ha ([9]; pre-emergence, Preemergence, scale 0 to 100 (0 no effect, 100 complete control), read-out: Plant response rating, Foxtail, Giant): 90% | pest or weed control at 62 g/ha ([9]; pre-emergence, Preemergence, scale 0 to 100, 0 no effect, 100 complete control, read-out: Plant response rating, Foxtail, Giant): 70% | pest or weed control at 125 g/ha [10, 21]: 80% | pest or weed control at 62 g/ha [10, 21]: 70% | pest or weed control at 125 g/ha ([10]; pre-emergence, Preemergence, scale 0 to 100 (0 no effect, 100 complete control), read-out: Plant response rating, Surinam Grass): 90% | pest or weed control at 62 g/ha ([10]; pre-emergence, Preemergence, scale 0 to 100, 0 no effect, 100 complete control, read-out: Plant response rating, Surinam Grass): 60% | plant injury at 62 g/ha ([11]; post-emergence, Postemergence, 62 g ai/ha, scale 0 to 100 (0 no effect, 100 complete control), read-out: Corn plant response rating): 30% | plant injury at 125 g/ha ([11]; post-emergence, Postemergence, 125 g ai/ha, scale 0 to 100 (0 no effect, 100 complete control), read-out: Corn plant response rating): 80% | Corn plant response rating (crop injury, 0 = no effect, 100 = complete kill) at 62 g/ha ([11]; pre-emergence, Preemergence, 62 g ai/ha, scale 0 to 100, 0 no effect, 100 complete control): 70% | Corn plant response rating (crop injury, 0 = no effect, 100 = complete kill) at 125 g/ha ([11]; pre-emergence, Preemergence, 125 g ai/ha, scale 0 to 100 (0 no effect, 100 complete control)): 80% | pest or weed control at 62 g/ha [12, 22]: 60% | pest or weed control at 125 g/ha [12, 22]: 90% | pest or weed control at 62 g/ha [12, 23]: 70% | pest or weed control at 125 g/ha [12, 23]: 90% | Cocklebur plant response rating ([13]; Postemergence, 62 g ai/ha, scale 0 to 100 (0 no effect, 100 complete control)): 70 | pest or weed control at 125 g/ha ([13]; Xanthium strumarium, post-emergence, Postemergence, scale 0 to 100 (0 no effect, 100 complete control), read-out: Cocklebur plant response rating): 100% | pest or weed control at 62 g/ha ([13]; Xanthium strumarium, pre-emergence, Preemergence, 62 g ai/ha, scale 0 to 100, 0 no effect, 100 complete control, read-out: Plant response rating, Cocklebur): 80% | pest or weed control at 125 g/ha ([13]; Xanthium strumarium, pre-emergence, Preemergence, scale 0 to 100 (0 no effect, 100 complete control), read-out: Plant response rating, Cocklebur): 100% | pest or weed control at 62 g/ha [14, 24]: 90% | pest or weed control at 125 g/ha [14, 24]: 100% | pest or weed control at 62 g/ha ([14]; pre-emergence, Preemergence, scale 0 to 100, 0 no effect, 100 complete control, read-out: Plant response rating, Pigweed): 100% | pest or weed control at 125 g/ha ([14]; pre-emergence, Preemergence, scale 0 to 100 (0 no effect, 100 complete control), read-out: Plant response rating, Pigweed): 100% | pest or weed control at 62 g/ha [15, 25]: 100% | pest or weed control at 125 g/ha [15, 25]: 100% | pest or weed control at 62 g/ha ([15]; pre-emergence, Preemergence, scale 0 to 100, 0 no effect, 100 complete control, read-out: Plant response rating, Lambsquarters): 100% | pest or weed control at 125 g/ha ([15]; pre-emergence, Preemergence, scale 0 to 100 (0 no effect, 100 complete control), read-out: Plant response rating, Lambsquarters): 100% | plant injury at 62 g/ha [16, 26]: 50% | plant injury at 125 g/ha [16, 26]: 60% | plant injury at 62 g/ha [16, 27]: 70% | plant injury at 125 g/ha [16, 27]: 70% | pest or weed control at 62 g/ha [17, 28]: 70% | pest or weed control at 125 g/ha [17, 28]: 80% | pest or weed control at 62 g/ha ([17]; pre-emergence, Preemergence, scale 0 to 100, 0 no effect, 100 complete control, read-out: Plant response rating, Crabgrass): 80% | pest or weed control at 125 g/ha ([17]; pre-emergence, Preemergence, scale 0 to 100 (0 no effect, 100 complete control), read-out: Plant response rating, Crabgrass): 90%
